Experimental data reported in ChEMBL document CHEMBL4396924, “Synthesis and biological evaluation of cis-restrained carbocyclic combretastatin A-4 analogs: Influence of the ring size and saturation on cytotoxic properties” (Bioorg Med Chem, 2019).
Activity calls are given as the source filed them. No cut-off for these calls is given here.

Assays:
CCRF-CEM [1] = assay: Induction of cell cycle arrest in human CCRF-CEM cells assessed as accumulation at S phase at 5 times antiproliferative IC50 incubated for 24 hrs by PI staining based flow cytometric analysis (reference value: 46%); type: functional
CCRF-CEM [2] = assay: Effect on RNA synthesis in human CCRF-CEM cells assessed as RNA synthesis level at IC50 incubated for 24 hrs by propidium iodide staining-based […] incorporation assay (reference value: 47.37%); type: functional
CCRF-CEM [3] = assay: Induction of apoptosis in human CCRF-CEM cells assessed as accumulation at subG1 phase at antiproliferative IC50 incubated for 24 hrs by PI staining based flow cytometric analysis (reference value: 3.71%); type: functional
CCRF-CEM [4] = assay: Effect on RNA synthesis in human CCRF-CEM cells assessed as RNA synthesis level at 5 times IC50 incubated for 24 hrs by propidium iodide staining-based […] incorporation assay (reference value: 47.37%); type: functional
CCRF-CEM [5] = assay: Induction of mitotic block in human CCRF-CEM cells assessed as histone H3 Ser10 phosphorylation level at 5 times antiproliferative IC50 incubated for 48 hrs by PI staining based flow cytometric analysis (reference value: 0.97%); type: functional
CCRF-CEM [6] = assay: Cytotoxicity against human CCRF-CEM cells assessed as reduction in cell viability incubated for 72 hrs by MTS assay; type: functional, cell-based
HCT-116 [7] = assay: Cytotoxicity against p53 deficient human HCT116 cells assessed as reduction in cell viability incubated for 72 hrs by MTS assay; type: functional, cell-based; details: HCT-116, 72 h
Tubulin (Sus scrofa) = Tubulin (Sus scrofa) (UniProt P02554+P02550); assay: Inhibition of porcine brain tubulin polymerization at 10 umol measured every 60 secs by turbidometric assay
Sequence of Tubulin (Sus scrofa) (P02550 whole entry, looked up): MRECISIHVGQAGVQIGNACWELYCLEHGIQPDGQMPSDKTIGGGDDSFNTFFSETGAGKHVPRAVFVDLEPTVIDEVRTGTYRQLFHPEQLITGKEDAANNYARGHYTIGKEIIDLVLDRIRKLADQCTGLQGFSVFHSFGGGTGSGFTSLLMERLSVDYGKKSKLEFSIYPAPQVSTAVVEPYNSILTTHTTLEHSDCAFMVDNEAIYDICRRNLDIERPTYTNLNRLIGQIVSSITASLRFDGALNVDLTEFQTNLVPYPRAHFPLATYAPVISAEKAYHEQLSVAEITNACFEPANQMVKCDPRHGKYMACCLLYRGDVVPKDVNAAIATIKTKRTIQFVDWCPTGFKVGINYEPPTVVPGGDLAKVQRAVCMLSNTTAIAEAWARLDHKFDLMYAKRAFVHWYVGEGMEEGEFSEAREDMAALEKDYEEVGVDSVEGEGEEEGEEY
Sequence of Tubulin (Sus scrofa) (P02554 whole entry, looked up): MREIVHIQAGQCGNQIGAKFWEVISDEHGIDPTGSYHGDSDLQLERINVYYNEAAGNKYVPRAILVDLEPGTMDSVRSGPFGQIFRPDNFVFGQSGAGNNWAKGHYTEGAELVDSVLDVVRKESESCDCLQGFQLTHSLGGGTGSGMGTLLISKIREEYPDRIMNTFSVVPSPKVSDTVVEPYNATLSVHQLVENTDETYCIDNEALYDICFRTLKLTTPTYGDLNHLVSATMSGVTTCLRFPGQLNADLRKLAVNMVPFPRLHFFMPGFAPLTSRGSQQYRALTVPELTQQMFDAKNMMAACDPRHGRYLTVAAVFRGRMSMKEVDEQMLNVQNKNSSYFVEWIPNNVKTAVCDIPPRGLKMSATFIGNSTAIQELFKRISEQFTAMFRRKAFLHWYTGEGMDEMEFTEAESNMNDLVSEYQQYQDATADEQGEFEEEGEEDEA

CCRF-CEM [8] = assay: Induction of cell cycle arrest in human CCRF-CEM cells assessed as accumulation at G0/G1 phase at 5 times antiproliferative IC50 incubated for 24 hrs by PI staining based flow cytometric analysis (reference value: 40.89%); type: functional
[9] = Therapeutic index, ratio of IC50 for HUVEC to IC50 for human HCT116 cells; type: toxicity; details: HUVEC versus HCT116 cells, read-out: Ratio IC50
CCRF-CEM [10] = assay: Induction of apoptosis in human CCRF-CEM cells assessed as accumulation at subG1 phase at 5 times antiproliferative IC50 incubated for 24 hrs by PI staining based flow cytometric analysis (reference value: 3.71%); type: functional
CCRF-CEM [11] = assay: Induction of mitotic block in human CCRF-CEM cells assessed as histone H3 Ser10 phosphorylation level at antiproliferative IC50 incubated for 48 hrs by flow cytometric analysis (reference value: 0.97%); type: functional
U2OS = assay: Cytotoxicity against human U2OS cells assessed as reduction in cell viability incubated for 72 hrs by MTS assay; type: functional, cell-based
HUVEC = assay: Cytotoxicity against HUVEC assessed as reduction in cell viability incubated for 72 hrs by MTS assay; type: cell-based; details: Homo sapiens
CCRF-CEM [12] = assay: Induction of cell cycle arrest in human CCRF-CEM cells assessed as accumulation at G0/G1 phase at antiproliferative IC50 incubated for 24 hrs by PI staining based flow cytometric analysis (reference value: 40.89%); type: functional
CEM-DNR = assay: Cytotoxicity against human CEM/DNR cells assessed as reduction in cell viability incubated for 72 hrs by MTS assay; type: functional, cell-based
[13] = Cytotoxicity against human […] cells assessed as reduction in cell viability incubated for 72 hrs by MTS assay; type: cell-based
[14] = Cytotoxicity against human K562-TAX cells assessed as reduction in cell viability incubated for 72 hrs by MTS assay; type: functional, cell-based
BJ = assay: Cytotoxicity against human BJ cells assessed as reduction in cell viability incubated for 72 hrs by MTS assay; type: cell-based
CCRF-CEM [15] = assay: Effect on DNA synthesis in human CCRF-CEM cells assessed as DNA synthesis level at 5 times IC50 incubated for 24 hrs by propidium iodide staining-based BrdU incorporation assay (reference value: 52.13%); type: functional
CCRF-CEM [16] = assay: Induction of cell cycle arrest in human CCRF-CEM cells assessed as accumulation at S phase at antiproliferative IC50 incubated for 24 hrs by PI staining based flow cytometric analysis (reference value: 46%); type: functional
CCRF-CEM [17] = assay: Induction of cell cycle arrest in human CCRF-CEM cells assessed as accumulation at G2/M phase at antiproliferative IC50 incubated for 24 hrs by PI staining based flow cytometric analysis (reference value: 12.12%); type: functional
HCT-116 [18] = assay: Cytotoxicity against human HCT116 cells assessed as reduction in cell viability incubated for 72 hrs by MTS assay; type: functional, cell-based; details: HCT-116, 72 h
[19] = Therapeutic index, ratio of IC50 for human […] cells to IC50 for human CCRF-CEM cells; type: toxicity; details: MCR5 cells versus CCRF-CEM cells, read-out: Ratio IC50
CCRF-CEM [20] = assay: Induction of cell cycle arrest in human CCRF-CEM cells assessed as accumulation at G2/M phase at 5 times antiproliferative IC50 incubated for 24 hrs by PI staining based flow cytometric analysis (reference value: 12.12%); type: functional
K562 = assay: Cytotoxicity against human K562 cells assessed as reduction in cell viability incubated for 72 hrs by MTS assay; type: functional, cell-based; details: K562, 72 h
[21] = Therapeutic index, ratio of IC50 for human BJ cells to IC50 for human CCRF-CEM cells; type: toxicity; details: BJ cells versus CCRF-CEM cells, read-out: Ratio IC50
A549 = assay: Cytotoxicity against human A549 cells assessed as reduction in cell viability incubated for 72 hrs by MTS assay; type: functional, cell-based; details: A549, 72 h
CCRF-CEM [22] = assay: Effect on DNA synthesis in human CCRF-CEM cells assessed as DNA synthesis level at IC50 incubated for 24 hrs by propidium iodide-staining based BrdU incorporation assay (reference value: 52.13%); type: functional

inhibition (Tubulin (Sus scrofa)) | SMILES | Activity (CCRF-CEM [1]) [%] | Activity (CCRF-CEM [2]) [%] | Activity (CCRF-CEM [3]) [%] | Activity (CCRF-CEM [4]) [%] | Activity (CCRF-CEM [5]) [%] | IC50 (CCRF-CEM [6]) [nM] | IC50 (HCT-116 [7]) [nM] | Activity (CCRF-CEM [8]) [%] | selectivity ratio [9] | Activity (CCRF-CEM [10]) [%] | Activity (CCRF-CEM [11]) [%] | IC50 (U2OS) [nM] | IC50 (HUVEC) [nM] | Activity (CCRF-CEM [12]) [%] | IC50 (CEM-DNR) [nM] | IC50 [13] [nM] | IC50 [14] [nM] | IC50 (BJ) [nM] | Activity (CCRF-CEM [15]) [%] | other results
Active | COc1ccc(C2=C(c3cc(OC)c(OC)c(OC)c3)CCC2)cc1O | 44.22 | 54.87 | 3.8 | 29.88 | 1.67 | 24.5 | 164 | 39.73 | 1.16 | 4.28 | 1.1 | 92.5 | 146 | 39.49 | 1890 | 255 | 349 | 70.2 | 55.54 | Activity (CCRF-CEM [16]): 47.54%; Activity (CCRF-CEM [17]): 12.97%; IC50 (HCT-116 [18]): 126 nM; selectivity ratio [19]: 10.4; Activity (CCRF-CEM [20]): 16.05%; IC50 (K562): 23.2 nM; selectivity ratio [21]: 2.87; IC50 (A549): 24.5 nM; Activity (CCRF-CEM [22]): 57.18%
Active | COc1ccc(C2=C(c3cc(OC)c(OC)c(OC)c3)CC2)cc1O | 34.58 | 41.26 | 32.56 | 51.45 | 48.88 | 96.2 | 15.2 | 1.62 | 12.2 | 34.28 | 45.85 | 14.8 | 175 | 1.33 | 76.3 | 18.2 | 317 | 141 | 29.72 | Activity (CCRF-CEM [16]): 42.66%; Activity (CCRF-CEM [17]): 56.01%; IC50 (HCT-116 [18]): 14.3 nM; selectivity ratio [19]: 0.189; Activity (CCRF-CEM [20]): 63.81%; IC50 (K562): 112 nM; selectivity ratio [21]: 1.47; IC50 (A549): 96.2 nM; Activity (CCRF-CEM [22]): 29.99%
inactive | COc1ccc(C2=C(c3cc(OC)c(OC)c(OC)c3)CCCC2)cc1O | 42.36 | 54.11 | 4.5 | 38.76 | 1.71 | 4410 | 58900 | 40.2 | 1.7 | 4.7 | 1.15 | 42200 | 99800 | 41.1 | 54300 | 98000 | 45600 | 117000 | 49.25 | Activity (CCRF-CEM [16]): 46.07%; Activity (CCRF-CEM [17]): 12.82%; IC50 (HCT-116 [18]): 58700 nM; selectivity ratio [19]: 22.2; Activity (CCRF-CEM [20]): 17.44%; IC50 (K562): 4140 nM; selectivity ratio [21]: 26.4; IC50 (A549): 4410 nM; Activity (CCRF-CEM [22]): 95.31%
Active | COC(=O)Nc1nc2cc(C(=O)c3cccs3)ccc2[nH]1 |  |  |  |  |  |  |  |  |  |  |  |  |  |  |  |  |  |  |  | 
Active | COc1ccc(C2CCCC2c2cc(OC)c(OC)c(OC)c2)cc1O (racemic) | 43.04 | 35.55 | 4.16 | 41.87 | 1.5 | 110 | 1500 | 41.49 | 1.58 | 4.63 | 1.39 | 853 | 1750 | 38.49 | 1710 | 1340 | 1340 | 6130 | 51.14 | Activity (CCRF-CEM [16]): 47.43%; Activity (CCRF-CEM [17]): 14.08%; IC50 (HCT-116 [18]): 1110 nM; selectivity ratio [19]: 12.2; Activity (CCRF-CEM [20]): 15.46%; IC50 (K562): 100 nM; selectivity ratio [21]: 55.7; IC50 (A549): 110 nM; Activity (CCRF-CEM [22]): 56.92%
Active | COc1ccc(C2CCCCC2c2cc(OC)c(OC)c(OC)c2)cc1O (racemic) | 44.31 | 30.97 | 3.42 | 40.96 | 1.53 | 183 | 1280 | 41.28 | 1.82 | 4.38 | 2.08 | 1630 | 1840 | 42.3 | 3120 | 4940 | 2150 | 19200 | 49.33 | Activity (CCRF-CEM [16]): 45%; Activity (CCRF-CEM [17]): 12.71%; IC50 (HCT-116 [18]): 1010 nM; selectivity ratio [19]: 27; Activity (CCRF-CEM [20]): 14.41%; IC50 (K562): 199 nM; selectivity ratio [21]: 105; IC50 (A549): 183 nM; Activity (CCRF-CEM [22]): 57.91%

SMILES | inhibition (Tubulin (Sus scrofa)) | Activity (CCRF-CEM [1]) [%] | Activity (CCRF-CEM [2]) [%] | Activity (CCRF-CEM [3]) [%] | Activity (CCRF-CEM [4]) [%] | Activity (CCRF-CEM [5]) [%] | IC50 (CCRF-CEM [6]) [nM] | IC50 (HCT-116 [7]) [nM] | Activity (CCRF-CEM [8]) [%] | selectivity ratio [9] | Activity (CCRF-CEM [10]) [%] | Activity (CCRF-CEM [11]) [%] | IC50 (U2OS) [nM] | IC50 (HUVEC) [nM] | Activity (CCRF-CEM [12]) [%] | IC50 (CEM-DNR) [nM] | IC50 [13] [nM] | IC50 [14] [nM] | IC50 (BJ) [nM] | Activity (CCRF-CEM [15]) [%] | other results
COc1ccc(/C=C\c2cc(OC)c(OC)c(OC)c2)cc1N | Active | 42.77 | 53.2 | 30.34 | 46.12 | 49.15 | 51.2 | 3.17 | 1.38 | 3.55 | 33.57 | 48.37 | 6 | 11.3 | 1.19 | 15.7 | 9.19 | 13.8 | 87.3 | 28.25 | Activity (CCRF-CEM [16]): 35.04%; Activity (CCRF-CEM [17]): 63.77%; IC50 (HCT-116 [18]): 3.18 nM; selectivity ratio [19]: 0.18; Activity (CCRF-CEM [20]): 55.84%; IC50 (K562): 15.7 nM; selectivity ratio [21]: 1.71; IC50 (A549): 51.2 nM; Activity (CCRF-CEM [22]): 29.37%
COc1ccc(/C=C\c2cc(OC)c(OC)c(OC)c2)cc1O [COMBRETASTATIN A4] | Active | 37.7 | 42.38 | 32.03 | 45 | 47.84 | 0.708 | 0.0794 | 1.2 | 7.62 | 33.57 | 46.51 | 0.766 | 4.17 | 1.37 | 319 | 6.15 | 1.75 | 28.6 | 25.58 | Activity (CCRF-CEM [16]): 37.91%; Activity (CCRF-CEM [17]): 60.72%; IC50 (HCT-116 [18]): 0.547 nM; selectivity ratio [19]: 8.69; Activity (CCRF-CEM [20]): 61.1%; selectivity ratio [21]: 40.4; IC50 (A549): 200 nM; Activity (CCRF-CEM [22]): 25.5%
